Where a name gives a salt, the structure may show the parent alone.
Assays:
active rats = experiment: Video tracking: motor activity (velocity) of active rats; type: in vivo, Sprague-Dawley rats
Experimental: (§1) Prior to testing, the rats were housed for approximately 1 week with free access to food and water, in groups of four or five in Macrolon type III cages in the animal facility of the Sahlgrenska Academy at Göteborg University. The experiments were approved by the animal ethics committee in Göteborg.
(§2) OSU6162, ACR16, apomorphine and (−)-3-PPP were dissolved in 0.9% saline. A few grains of ascorbic acid were added to apomorphine solutions to prevent oxidation of the drug. Haloperidol and amisulpride were dissolved in a minimum amount of acetic acid and diluted with 5.5% glucose. The solutions were adjusted to pH 5-7 with sodium bicarbonate. Aripiprazole was dissolved in a minimum amount of heated acetic acid, diluted in warm 5.5% glucose and adjusted to pH 4-5. All drugs were administered intraperitoneally (i.p.) or subcutaneously (s.c.) in volumes of 5 ml/kg. Control treatments consisted of the appropriate vehicle administered in accordance with the drug treatment at issue.
(§3) The rats were housed in reverse daylight cycle and all handling of the animals was performed in dim light. Apomorphine was administered s.c. 5 minutes prior to testing, while all other drugs were injected i.p. or s.c. 30 minutes before testing. Single rats were introduced into rectangular arenas (l/w/h: 150×100×40 cm) illuminated indirectly by one infrared lamp (Neocom, South Korea). The rats' movements were recorded to digital (MPEG2) video files using an IR sensitive video camera (Panasonic WV-CPR480, lens: Panasonic LA-408C3) connected to a PC equipped with a MPEG-encoder (MVR1000^SX, Canopus Co.). […] Behavioural variables were extracted from the tracks in MatLab (The MathWorks, Inc., USA) with functions developed in this laboratory. Mean velocity was used to measure motor activity. Prior to calculation of velocity the tracks were subjected to a running mean filter, i.e. each sample was replaced by the mean of fifteen consecutive samples.
(§4) In several cases data from two or more experiments have been pooled. […] Confirmed outlying values (N=0-3 per experiment) were excluded from statistical analyses and graphical presentations. Data from the video tracking setting was analyzed with univariate general linear model (GLM). Following GLM analysis, comparisons versus the appropriate control groups were performed with Dunnet's post hoc test. […] Data obtained from activity boxes was analyzed with Kruskal-Wallis one-way analysis of variance by ranks. […] All statistical tests were two sided and p<0.05 was considered statistically significant.

habituated rats = experiment: Motor activity of habituated rats in activity boxes; type: in vivo, Sprague-Dawley rats; conditions: s.c.
Experimental: as §1, §2
Rats were housed in a normal daylight cycle and testing was performed during daytime. Animals were introduced into sound attenuated, illuminated activity boxes (1/w/h: 40×40×20 cm) and were allowed to habituate in the new environment for 65 minutes. During the following 5 minutes test drugs were injected s.c., after which the rats were returned to the boxes for another 60 minutes. Five by five rows of photocell beams at floor level allowed a computer based-system to register horizontal activity. Motor activity is presented as accumulated number of unrepeated beam breaks, i.e. several consecutive breakings of one beam is counted as one beam break. The software was set to register behaviour from the rat's first introduction into the arena until it was finally removed from the box, i.e. for 130 minutes. Activity is presented separately for t=0-30 min and t=30-60 min after injection.
as §4

[1] = tested on: apomorphine induced hypomotility in rats; experiment: Apomorphine induced hypomotility in rats (video tracking); type: in vivo, Sprague-Dawley rats
Experimental: FIG. 7. […] Test drugs were administered 30 minutes prior to registration. Motor activity was measured for 30 minutes as velocity in the video tracking setting. Statistical comparisons were made versus the apomorphine group with univariate general linear model, followed by Dunnet's post hoc test. *p<0.05; *p<0.01; ***p<0.001. FIG. 8.
as §3, §4

[2] = Hartter et al., 2003; cited from earlier work
human D2l receptors = target: T1, human D2l receptors (Homo sapiens, UniProt P14416); experiment: Incorporation of GTPgammaS^35 in CHO-hD2l membranes; type: biochemical
T1 construct: expressed in transfected cells; host or cells: CHO (CHO-hD2l cells), membrane preparation
Experimental: Membranes were stored at −80° C. at a concentration of 1 mg protein/ml buffer.
Dopamine-stimulated GTPgammaS^35 incorporation was determined using the following procedure: in a buffer containing 20 mM HEPES, 5 mM Mg Cl2, 100 mM NaCl, at pH 7.5, membranes ([…]) were incubated with vehicle, drugs and 3 μM GDP for 30 min at 30° C., total volume was 1.1 ml. […] The reaction was stopped by filtering the samples with a Brandel harvester on Whatmann GF/B filters. Filters were placed in liquid scintillation vials containing 10 ml of BCS scintillation fluid and counted the next day. All samples were run in triplicate.

[3] = tested on: mice pretreated with reserpine and alpha-methylpara-tyrosine; experiment: Mouse model of Parkinsonism (reserpine and alpha-methyl-para-tyrosine pretreated mice); type: in vivo, NMRI mice
Experimental: Animals were pretreated with reserpine (10 mg/kg i.p.) and alpha-methylpara-tyrosine (500 mg/kg i.p.) 18 and 4 hours before the experiment, respectively, and were then treated with various i.p. doses of OSU6162, expressed in […], or saline (“ctr”). Immediately following injection the animals were placed in individual cages and video-taped from above for 60 min. Shown are the distances moved, means and S.E.M. N=5-6 per treatment group. Statistics: *P<0.05, **p<0.01, as compared with the controls.
In these experiments we used male NMRI mice weighting 25-30 g at the time of testing. The mice were pretreated with reserpine, 10 mg/kg i.p., 18 hours, and alpha-methyl-para-tyrosine HCl, 500 mg/kg i.p. 2 hours, respectively, before the experiment.
The actual experiment was started by injecting either OSU6162 in doses of 5, 25 or 125 μmol/kg i.p.or placebo (a physiological saline solution). Each dosage group consisted of 5-6 mice. Immediately after injection the mice were placed in individual cages and video taped from above for 60 min. Various aspects of motility were analysed from the video tapes.
Statistical calculations were performed with the non parametric Mann-Whitney U-test, and asterisks in the graph indicate significant differences compared to control group (*p<0.05; **p<0.01).

rats [4] = experiment: Preliminary experiment: rats in large illuminated arenas during daytime; type: in vivo
Text: As to the issues of illumination and daylight cycle, behavioural inhibition has been observed in ultraviolet (Rung et al., 2005b) or infrared light (current study) during the dark hours of the rats' diurnal rhythm. Based on how the light is perceived by humans, we presume that the ultraviolet and infrared light used in these studies is perceived by the rats as dim light and darkness respectively.

dopamine D2 receptors = dopamine D2 receptors (Homo sapiens, UniProt P14416); conditions: in-vitro binding, Sonesson et al. 1994; cited from earlier work
[5] = clinical dosages of at least 25 mg per day; cited from earlier work
[6] = tested on: amphetamine-induced hyperactivity in rats; conditions: Natesan et al., 2006; cited from earlier work
rats [7] = conditions: small activity boxes; pre-treatment 30 minutes; dark hours, light turned off; preliminary
[8] = i.p., 30 min prior to 30 min tracking
[9] = whole 60 min registration / either time interval
[10] = apomorphine 0.16 μmol/kg s.c., test drug i.p. 30 min prior, dose range per drug

T1 sequence (P14416 whole entry): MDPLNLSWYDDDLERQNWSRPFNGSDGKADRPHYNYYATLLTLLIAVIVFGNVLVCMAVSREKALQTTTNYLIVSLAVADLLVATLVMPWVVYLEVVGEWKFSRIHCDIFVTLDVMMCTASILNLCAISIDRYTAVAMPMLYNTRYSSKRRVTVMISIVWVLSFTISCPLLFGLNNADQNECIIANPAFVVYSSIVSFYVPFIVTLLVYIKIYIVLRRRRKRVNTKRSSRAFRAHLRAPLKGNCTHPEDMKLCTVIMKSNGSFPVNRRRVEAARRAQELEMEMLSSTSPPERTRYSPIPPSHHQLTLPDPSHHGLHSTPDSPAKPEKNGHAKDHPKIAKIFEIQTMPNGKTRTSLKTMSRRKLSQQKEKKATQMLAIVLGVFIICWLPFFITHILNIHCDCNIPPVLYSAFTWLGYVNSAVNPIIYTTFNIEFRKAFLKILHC
Chain of dopamine D2 receptors (P14416 whole entry): as above

## O=C(CCCN1CCC(O)(c2ccc(Cl)cc2)CC1)c1ccc(F)cc1 [haloperidol, reference compound]
Active rats; haloperidol 0.8 μmol/kg, s.c.
  motor activity relative to control: approximately 7 % of control level
Active rats; [8]
  motor activity (velocity): statistically significant inhibition at the highest dose
Habituated rats; [9]
  motor activity (accumulated unrepeated beam breaks): Neither haloperidol (0.1-0.8 μmol/kg) nor amisulpride (33-300 μmol/kg) had any significant effects on motor activity
[1]; [10]
  effect on apomorphine-induced hypomotility: no statistically significant effects on motor activity

## O=C1CCc2ccc(OCCCCN3CCN(c4cccc(Cl)c4Cl)CC3)cc2N1 [aripiprazole, reference compound]
Active rats; [8]
  motor activity (velocity): marked and dose-dependent inhibition on motor activity, that was statistically significant at all doses tested
Habituated rats; t=0-30 min after injection
  motor activity (accumulated unrepeated beam breaks): dose-dependent inhibition during the first 30 minutes after injection, which was statistically significant at the highest dose
Habituated rats; t=30-60 min after injection
  motor activity (accumulated unrepeated beam breaks): did not affect locomotor activity

## CCN1CCCC1CNC(=O)c1cc(S(=O)(=O)CC)c(N)cc1OC (stereo not drawn) [amisulpride, reference compound]
Active rats; [8]
  motor activity (velocity): inhibited motor activity slightly at the highest dose tested
Habituated rats; [9]
  motor activity (accumulated unrepeated beam breaks): Neither haloperidol (0.1-0.8 μmol/kg) nor amisulpride (33-300 μmol/kg) had any significant effects on motor activity
[1]; amisulpride 270 μmol/kg, s.c., data not shown
  effect on apomorphine-induced hypomotility: a mere tendency towards reversal of apomorphine-induced hypoactivity
[1]; [10]
  effect on apomorphine-induced hypomotility: effectively counteracted apomorphine-induced hypoactivity
[2]
  penetration of biological membranes: poor penetration of biological membranes

## CCCN1CCC[C@@H](c2cccc(S(C)(=O)=O)c2)C1 [(−)-OSU6162, S-(−)-3-[3-methylsulfonylphenyl]-1-propylpiperidine]
Human D2l receptors; absence of dopamine, 100 to 10,000 nM (−)OSU6162
  increase of the incorporation of GTPgammaS^35: 8 to 11%
Human D2l receptors; dopamine 10 to 100 nM, (−)-OSU6162 10 to 100 nM
  effect on GTPgammaS^35 incorporation: caused an increased incorporation of GTPgammaS^35
Human D2l receptors; dopamine 10 to 100 nM, (−)-OSU6162 1,000 to 10,000 nM
  effect on GTPgammaS^35 incorporation: this increase was no longer seen
Human D2l receptors; dopamine 1,000 and 10,000 nM, varied (−)-OSU6162 levels
  effect on GTPgammaS^35 incorporation: similar, though flatter activity curves
Active rats; [8]
  motor activity (velocity): dose-dependent and statistically significant reduction of motor activity
Habituated rats; later experiment with lower doses 6.25 and 12.5 μmol/kg
  dose at which a significant effect on motor activity shows up: 12.5 µmol/kg
Habituated rats; t=0-30 min after injection
  motor activity (accumulated unrepeated beam breaks): marked locomotor activation
Habituated rats; t=30-60 min after injection
  motor activity (accumulated unrepeated beam breaks): the three highest doses significantly stimulated locomotion
[1]; apomorphine 0.16 μmol/kg s.c., OSU6162 120 μmol/kg i.p.
  effect on apomorphine-induced hypomotility: seemed to cause a marked drop in motor activity
[1]; [10]
  effect on apomorphine-induced hypomotility: modest but apparently dose dependent reversal of apomorphineinduced hypomotility up to a dose of 60 μmol/kg
[3]; OSU6162 5 μmol/kg i.p.
  motility (distance moved, 60 min): showed only minimal signs of motility
[3]; OSU6162 two higher doses (25, 125 μmol/kg i.p.)
  motility (distance moved, 60 min): significant, dose dependent increase in motility
Rats [4]; daytime, large illuminated arenas, not habituated
  behavioural response: behavioural inhibition similar to that observed in darkness
Rats [4]; rats habituated to large illuminated arenas
  behavioural response: did not respond with any change in activity
Dopamine D2 receptors
  Ki: in the micromolar region
[5]
  cardiac adverse effects: QTc values higher than normal, cardiac arrhythmia, or heart rhythm abnormalities, such as torsades de pointes
[6]
  effect on amphetamine-induced hyperactivity: reverse amphetamine-induced hyperactivity

## CCCN1CCC[C@@H](c2cccc(O)c2)C1 [(−)-3-PPP, S-(−)-3-[3-hydroxyphenyl]-1-propylpiperidine, reference compound]
Active rats; s.c., 30 min prior to 30 min tracking, OSU6162 50-200 μmol, (−)-3-PPP 2.5 and 10 μmol/kg
  motor activity (velocity): marked and dose-dependent inhibition on motor activity, that was statistically significant at all doses tested
Habituated rats; [9]
  motor activity (accumulated unrepeated beam breaks): did not have any statistically significant effects on motor activity in either time interval

## CCCN1CCC(c2cccc(S(C)(=O)=O)c2)CC1 [ACR16, 4-(3-methanesulfonylphenyl)-1-propyl-piperidine]
Active rats; [8]
  motor activity (velocity): dose-dependent and statistically significant reduction of motor activity
Habituated rats; t=0-30 min after injection
  motor activity (accumulated unrepeated beam breaks): this effect increased dose-dependently
Habituated rats; t=30-60 min after injection
  motor activity (accumulated unrepeated beam breaks): the effect appeared to peak at the dose 50 μmol/kg
Habituated rats; [9]
  motor activity (accumulated unrepeated beam breaks): caused an activation, although smaller than that of OSU6162
[1]; apomorphine 0.08 μmol/kg s.c., ACR16 i.p., higher dose
  effect on apomorphine-induced hypomotility: tended to inhibit activity further
[1]; [10]
  effect on apomorphine-induced hypomotility: did not have any noticeable effect on apomorphine-induced hypoactivity
Rats [7]
  motor activity: marked reduction in motor activity
[6]
  effect on amphetamine-induced hyperactivity: reverse amphetamine-induced hyperactivity

## CN1CCc2cccc3c2[C@H]1Cc1ccc(O)c(O)c1-3 [apomorphine, R-(−)-Apomorphine hydrochloride hemihydrate]
Active rats; apomorphine 0.04-0.16 μmol/kg s.c., 5 min prior to registration
  locomotor activity (velocity): dose dependent inhibiting effect on locomotor activity
Active rats; apomorphine higher dose-interval 0.16-64 μmol/kg s.c.
  motor activity (velocity): motor activity began to return towards a level similar to that observed in controls
Active rats; apomorphine s.c.
  dose of maximal inhibition of motor activity: 0.16 µmol/kg
